Reference: patent US12077503B2, “Substituted cyclic amides and their use as herbicides” (FMC CORPORATION, priority 2015, dated 2024)

Assays:
Format in all cases: in vivo
[1] = tested on: barnyardgrass (Echinochloa crus-galli); test: Test G Pre-Emergence Protocol; conditions: Echinochloa crus-galli, pre-emergence, 312 h, evaluated after 13 days; for pest or weed control at 15.625 g/ha: 15.625 g ai/ha; for pest or weed control at 15.625 g/ha / pest or weed control at 250 g/ha: read-out: Barnyardgrass damage rating (100=total damage to plant; 0=no damage to plant); for pest or weed control at 62.5 g/ha: 62.5 g ai/ha, 100=total damage to plant, 0=no damage to plant, read-out: Barnyardgrass damage rating; for pest or weed control at 250 g/ha: 250 g ai/ha
Procedure, shortened: (§1)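 Visual injury (0–100) at day 13 after a single pre-emergence spray. Rates: 15.625, 62.5, 250 g/ha in acetone–water 50:50 with 0.5% Tween 20. Growth conditions: 24/16° C, 14 h light, 65% humidity.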

corn (Zea mays) [2] = test: Test G Pre-Emergence Protocol; conditions: Zea mays, pre-emergence, 312 h, evaluated after 13 days; for plant injury at 15.625 g/ha: 15.625 g ai/ha; for plant injury at 15.625 g/ha / plant injury at 250 g/ha: read-out: Corn damage rating (100=total damage to plant; 0=no damage to plant); for plant injury at 62.5 g/ha: 62.5 g ai/ha, 100=total damage to plant, 0=no damage to plant, read-out: Corn damage rating; for plant injury at 250 g/ha: 250 g ai/ha
Procedure, shortened: as §1

[3] = tested on: giant foxtail (Setaria faberi); test: Test G Pre-Emergence Protocol; conditions: Setaria faberi, pre-emergence, 312 h, evaluated after 13 days; for pest or weed control at 15.625 g/ha: 15.625 g ai/ha; for pest or weed control at 15.625 g/ha / pest or weed control at 250 g/ha: read-out: Foxtail, Giant damage rating (100=total damage to plant; 0=no damage to plant); for pest or weed control at 62.5 g/ha: 62.5 g ai/ha, 100=total damage to plant, 0=no damage to plant, read-out: Foxtail, Giant damage rating; for pest or weed control at 250 g/ha: 250 g ai/ha
Procedure, shortened: as §1

[4] = tested on: ivy-leaved morning glory (Ipomoea hederacea); test: Test G Pre-Emergence Protocol; conditions: Ipomoea, pre-emergence, 312 h, evaluated after 13 days; for pest or weed control at 15.625 g/ha: 15.625 g ai/ha; for pest or weed control at 15.625 g/ha / pest or weed control at 250 g/ha: read-out: Morningglory, Ivy-leaved damage rating (100=total damage to plant; 0=no damage to plant); for pest or weed control at 62.5 g/ha: 62.5 g ai/ha, 100=total damage to plant, 0=no damage to plant, read-out: Morningglory, Ivy-leaved damage rating; for pest or weed control at 250 g/ha: 250 g ai/ha
Procedure, shortened: as §1

[5] = tested on: redroot pigweed (Amaranthus retroflexus); test: Test G Pre-Emergence Protocol; conditions: Amaranthus retroflexus, pre-emergence, 312 h, evaluated after 13 days; for pest or weed control at 15.625 g/ha: 15.625 g ai/ha; for pest or weed control at 15.625 g/ha / pest or weed control at 250 g/ha: read-out: Pigweed, Redroot damage rating (100=total damage to plant; 0=no damage to plant); for pest or weed control at 62.5 g/ha: 62.5 g ai/ha, 100=total damage to plant, 0=no damage to plant, read-out: Pigweed, Redroot damage rating; for pest or weed control at 250 g/ha: 250 g ai/ha
Procedure, shortened: as §1

[6] = tested on: velvetleaf (Abutilon theophrasti); test: Test G Pre-Emergence Protocol; conditions: Abutilon theophrasti, pre-emergence, 312 h, evaluated after 13 days; for pest or weed control at 15.625 g/ha: 15.625 g ai/ha; for pest or weed control at 15.625 g/ha / pest or weed control at 250 g/ha: read-out: Velvetleaf damage rating (100=total damage to plant; 0=no damage to plant); for pest or weed control at 62.5 g/ha: 62.5 g ai/ha, 100=total damage to plant, 0=no damage to plant, read-out: Velvetleaf damage rating; for pest or weed control at 250 g/ha: 250 g ai/ha
Procedure, shortened: as §1

[7] = tested on: barnyardgrass (Echinochloa crus-galli); test: Test G Post-Emergence Protocol; conditions: Echinochloa crus-galli, post-emergence, 312 h, read-out: Barnyardgrass damage rating; for pest or weed control at 15.625 g/ha: 15.625 g ai/ha, evaluated after 13 days (100=total damage to plant; 0=no damage to plant); for pest or weed control at 62.5 g/ha: 62.5 g ai/ha; for pest or weed control at 62.5 g/ha / pest or weed control at 250 g/ha: evaluated after 13 days, 100=total damage to plant, 0=no damage to plant; for pest or weed control at 250 g/ha: 250 g ai/ha
Procedure, shortened: (§2)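 Seedlings grown 8 days in soil in a glasshouse (24/16 °C day/night, 14 h light, 65% humidity) were sprayed post-emergence with compound in acetone/water 50:50 plus 0.5% Tween 20 at 15.625, 62.5 or 250 g/ha. Damage was scored after 13 days on a 0–100 scale (100 = total damage).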

corn (Zea mays) [8] = test: Test G Post-Emergence Protocol; conditions: Zea mays, post-emergence, 312 h, read-out: Corn damage rating; for plant injury at 15.625 g/ha: 15.625 g ai/ha, evaluated after 13 days (100=total damage to plant; 0=no damage to plant); for plant injury at 62.5 g/ha: 62.5 g ai/ha; for plant injury at 62.5 g/ha / plant injury at 250 g/ha: evaluated after 13 days, 100=total damage to plant, 0=no damage to plant; for plant injury at 250 g/ha: 250 g ai/ha
Procedure, shortened: as §2

[9] = tested on: giant foxtail (Setaria faberi); test: Test G Post-Emergence Protocol; conditions: Setaria faberi, post-emergence, 312 h, read-out: Foxtail, Giant damage rating; for pest or weed control at 15.625 g/ha: 15.625 g ai/ha, evaluated after 13 days (100=total damage to plant; 0=no damage to plant); for pest or weed control at 62.5 g/ha: 62.5 g ai/ha; for pest or weed control at 62.5 g/ha / pest or weed control at 250 g/ha: evaluated after 13 days, 100=total damage to plant, 0=no damage to plant; for pest or weed control at 250 g/ha: 250 g ai/ha
Procedure, shortened: as §2

[10] = tested on: ivy-leaved morning glory (Ipomoea hederacea); test: Test G Post-Emergence Protocol; conditions: Ipomoea, post-emergence, 312 h, read-out: Morningglory, Ivy-leaved damage rating; for pest or weed control at 15.625 g/ha: 15.625 g ai/ha, evaluated after 13 days (100=total damage to plant; 0=no damage to plant); for pest or weed control at 62.5 g/ha: 62.5 g ai/ha; for pest or weed control at 62.5 g/ha / pest or weed control at 250 g/ha: evaluated after 13 days, 100=total damage to plant, 0=no damage to plant; for pest or weed control at 250 g/ha: 250 g ai/ha
Procedure, shortened: as §2

[11] = tested on: redroot pigweed (Amaranthus retroflexus); test: Test G Post-Emergence Protocol; conditions: Amaranthus retroflexus, post-emergence, 312 h, read-out: Pigweed, Redroot damage rating; for pest or weed control at 15.625 g/ha: 15.625 g ai/ha, evaluated after 13 days (100=total damage to plant; 0=no damage to plant); for pest or weed control at 62.5 g/ha: 62.5 g ai/ha; for pest or weed control at 62.5 g/ha / pest or weed control at 250 g/ha: evaluated after 13 days, 100=total damage to plant, 0=no damage to plant; for pest or weed control at 250 g/ha: 250 g ai/ha
Procedure, shortened: as §2

[12] = tested on: velvetleaf (Abutilon theophrasti); test: Test G Post-Emergence Protocol; conditions: Abutilon theophrasti, post-emergence, 312 h, read-out: Velvetleaf damage rating; for pest or weed control at 15.625 g/ha: 15.625 g ai/ha, evaluated after 13 days (100=total damage to plant; 0=no damage to plant); for pest or weed control at 62.5 g/ha: 62.5 g ai/ha; for pest or weed control at 62.5 g/ha / pest or weed control at 250 g/ha: evaluated after 13 days, 100=total damage to plant, 0=no damage to plant; for pest or weed control at 250 g/ha: 250 g ai/ha
Procedure, shortened: as §2

Row | SMILES | pest or weed control at 15.625 g/ha [1] [%] | pest or weed control at 62.5 g/ha [1] [%] | pest or weed control at 250 g/ha [1] [%] | plant injury at 15.625 g/ha (corn (Zea mays) [2]) [%] | plant injury at 62.5 g/ha (corn (Zea mays) [2]) [%] | plant injury at 250 g/ha (corn (Zea mays) [2]) [%] | pest or weed control at 15.625 g/ha [3] [%] | pest or weed control at 62.5 g/ha [3] [%] | pest or weed control at 250 g/ha [3] [%] | pest or weed control at 15.625 g/ha [4] [%] | pest or weed control at 62.5 g/ha [4] [%] | pest or weed control at 250 g/ha [4] [%] | pest or weed control at 15.625 g/ha [5] [%] | pest or weed control at 62.5 g/ha [5] [%] | pest or weed control at 250 g/ha [5] [%] | pest or weed control at 15.625 g/ha [6] [%] | pest or weed control at 62.5 g/ha [6] [%] | pest or weed control at 250 g/ha [6] [%] | pest or weed control at 15.625 g/ha [7] [%] | pest or weed control at 62.5 g/ha [7] [%] | also measured
1 | CCOc1cc([C@@H]2CN(C)C(=O)[C@H]2C(=O)Nc2cccc(F)c2C)ccc1F (racemic) [Compound 1767] | 20 | 60 | 80 | 0 | 30 | 60 | 60 | 80 | 90 | 0 | 0 | 20 | 0 | 0 | 0 | 0 | 0 | 30 | 40 | 50 | pest or weed control at 250 g/ha [7]: 80%; plant injury at 15.625 g/ha (corn (Zea mays) [8]): 10%; plant injury at 62.5 g/ha (corn (Zea mays) [8]): 10%; plant injury at 250 g/ha (corn (Zea mays) [8]): 60%; pest or weed control at 15.625 g/ha [9]: 70%; pest or weed control at 62.5 g/ha [9]: 70%; pest or weed control at 250 g/ha [9]: 80%; pest or weed control at 15.625 g/ha [10]: 30%; pest or weed control at 62.5 g/ha [10]: 30%; pest or weed control at 250 g/ha [10]: 60%; pest or weed control at 15.625 g/ha [11]: 0%; pest or weed control at 62.5 g/ha [11]: 0%; pest or weed control at 250 g/ha [11]: 20%; pest or weed control at 15.625 g/ha [12]: 0%; pest or weed control at 62.5 g/ha [12]: 0%; pest or weed control at 250 g/ha [12]: 60%
2 | CN1C[C@H](c2cccc(C(F)(F)F)c2)[C@@H](C(=O)Nc2cc(O)ccc2F)C1=O (racemic) [Compound 1807] | 0 | 0 | 0 | 0 | 0 | 0 | 0 | 0 | 0 | 0 | 0 | 0 | 0 | 0 | 0 | 0 | 0 | 0 | 0 | 0 | pest or weed control at 250 g/ha [7]: 0%; plant injury at 15.625 g/ha (corn (Zea mays) [8]): 0%; plant injury at 62.5 g/ha (corn (Zea mays) [8]): 0%; plant injury at 250 g/ha (corn (Zea mays) [8]): 0%; pest or weed control at 15.625 g/ha [9]: 0%; pest or weed control at 62.5 g/ha [9]: 0%; pest or weed control at 250 g/ha [9]: 0%; pest or weed control at 15.625 g/ha [10]: 0%; pest or weed control at 62.5 g/ha [10]: 0%; pest or weed control at 250 g/ha [10]: 0%; pest or weed control at 15.625 g/ha [11]: 0%; pest or weed control at 62.5 g/ha [11]: 0%; pest or weed control at 250 g/ha [11]: 0%; pest or weed control at 15.625 g/ha [12]: 0%; pest or weed control at 62.5 g/ha [12]: 0%; pest or weed control at 250 g/ha [12]: 0%
3 | CSc1ncccc1NC(=O)[C@H]1C(=O)N(C)C[C@@H]1c1ccc(C(F)(F)F)cc1 (racemic) [Compound 1786] | 0 | 0 | 20 | 0 | 0 | 0 | 0 | 0 | 80 | 0 | 0 | 0 | 0 | 0 | 40 | 0 | 0 | 30 | 0 | 0 | pest or weed control at 250 g/ha [7]: 0%; plant injury at 15.625 g/ha (corn (Zea mays) [8]): 0%; plant injury at 62.5 g/ha (corn (Zea mays) [8]): 0%; plant injury at 250 g/ha (corn (Zea mays) [8]): 0%; pest or weed control at 15.625 g/ha [9]: 0%; pest or weed control at 62.5 g/ha [9]: 10%; pest or weed control at 15.625 g/ha [10]: 0%; pest or weed control at 62.5 g/ha [10]: 0%; pest or weed control at 250 g/ha [10]: 0%; pest or weed control at 15.625 g/ha [11]: 0%; pest or weed control at 62.5 g/ha [11]: 0%; pest or weed control at 250 g/ha [11]: 20%; pest or weed control at 15.625 g/ha [12]: 0%; pest or weed control at 62.5 g/ha [12]: 0%; pest or weed control at 250 g/ha [12]: 30%
